# Results as given in the supplement of paper PMC10307832.
# Experiments:
# Assay in all cases: relative viability (nuclei count vs DMSO), 5 days (fraction); higher = more cells survive
# Doramapimod + Linsitinib = compound: Cc1ccc(-n2nc(C(C)(C)C)cc2NC(=O)Nc2ccc(OCCN3CCOCC3)c3ccccc23)cc1 [Doramapimod] + C[C@]1(O)C[C@@H](c2nc(-c3ccc4ccc(-c5ccccc5)nc4c3)c3c(N)nccn32)C1 [Linsitinib] (partner 1 µM)
# Summary of the method: (§1)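 Lung cancer cell lines were seeded in 1536-well plates and dosed by pin tool the next day, with either a single drug or a fixed anchor-drug dose combined with five library-drug doses (not always all listed) spaced in √10 steps. Five days later, one step fixed the cells and stained their nuclei (final 0.05% Triton X-100, 1% formaldehyde, 1 ug/ml Hoechst), and nuclei were counted on 4× images. Relative viability is the nuclei count in treated wells divided by the count in vehicle wells, and each value is the median of duplicate plates.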
# [1] = compound: Cc1ccc(-n2nc(C(C)(C)C)cc2NC(=O)Nc2ccc(OCCN3CCOCC3)c3ccccc23)cc1 [Doramapimod] + CC(=O)c1c(C)c2cnc(Nc3ccc(N4CCNCC4)cn3)nc2n(C2CCCC2)c1=O [Palbociclib] (partner 0.5 µM)
# Summary of the method: as §1
# RAF265 + Linsitinib = compound: Cn1c(Nc2ccc(C(F)(F)F)cc2)nc2cc(Oc3ccnc(-c4ncc(C(F)(F)F)[nH]4)c3)ccc21 [RAF265] + C[C@]1(O)C[C@@H](c2nc(-c3ccc4ccc(-c5ccccc5)nc4c3)c3c(N)nccn32)C1 [Linsitinib] (partner 1 µM)
# Summary of the method: as §1
# Doramapimod + Vorinostat = compound: Cc1ccc(-n2nc(C(C)(C)C)cc2NC(=O)Nc2ccc(OCCN3CCOCC3)c3ccccc23)cc1 [Doramapimod] + O=C(CCCCCCC(=O)Nc1ccccc1)NO [Vorinostat] (partner 1 µM)
# Summary of the method: as §1
Cell Line,relative viability (Doramapimod + Linsitinib; first compound 0.02 µM),relative viability (Doramapimod + Linsitinib; first compound 0.06325 µM),relative viability (Doramapimod + Linsitinib; first compound 0.2 µM),relative viability (Doramapimod + Linsitinib; first compound 0.6325 µM),relative viability (Doramapimod + Linsitinib; first compound 2 µM),relative viability ([1]; first compound 0.02 µM),relative viability ([1]; first compound 0.06325 µM),relative viability ([1]; first compound 0.2 µM),relative viability ([1]; first compound 0.6325 µM),relative viability ([1]; first compound 2 µM),relative viability (RAF265 + Linsitinib; first compound 0.01 µM),relative viability (RAF265 + Linsitinib; first compound 0.03162 µM),relative viability (RAF265 + Linsitinib; first compound 0.1 µM),relative viability (RAF265 + Linsitinib; first compound 0.3162 µM),relative viability (RAF265 + Linsitinib; first compound 1 µM),relative viability (Doramapimod + Vorinostat; first compound 0.02 µM),relative viability (Doramapimod + Vorinostat; first compound 0.06325 µM),relative viability (Doramapimod + Vorinostat; first compound 0.2 µM),relative viability (Doramapimod + Vorinostat; first compound 0.6325 µM),relative viability (Doramapimod + Vorinostat; first compound 2 µM)
LU99A,0.504,0.535,0.47,0.503,0.457,0.38,0.365,0.379,0.426,0.313,0.471,0.423,0.323,0.308,0.273,0.443,0.455,0.578,0.53,0.474
BEN,0.834,0.893,0.906,0.769,0.854,0.462,0.459,0.504,0.387,0.541,0.897,1.01,1.12,0.939,0.791,0.54,0.561,0.513,0.458,0.584
SK-LU-1,1.07,1.02,1.2,1.16,0.941,0.4,0.4,0.396,0.401,0.337,1.14,0.7,0.687,0.523,0.428,0.944,0.75,0.824,0.933,0.867
NCI-H1975,1.07,0.956,0.885,0.98,0.926,0.583,0.576,0.488,0.596,0.512,0.855,0.712,0.567,0.43,0.361,0.733,0.724,0.699,0.758,0.636
RERF-LC-KJ,0.871,0.912,0.899,0.952,0.864,1.11,1.04,1.06,1.17,1.2,0.915,0.835,0.95,0.859,0.636,0.785,0.715,0.741,0.427,0.729
NCI-H441,0.528,0.512,0.541,0.553,0.442,0.197,0.221,0.203,0.191,0.219,0.617,0.495,0.415,0.3,0.389,0.72,0.851,0.591,0.798,0.644
LCLC-103H,0.99,1.06,1.09,1.09,1.03,0.43,0.396,0.432,0.42,0.439,1.03,1.14,1.1,0.944,0.641,0.788,0.799,0.875,0.845,0.751
HCC-78,0.399,0.429,0.466,0.527,0.514,0.469,0.511,0.505,0.509,0.568,0.553,0.468,0.574,0.47,0.439,0.456,0.369,0.492,0.434,0.412
NCI-H1915,1.1,1.17,1.1,1.12,1.09,0.507,0.547,0.469,0.525,0.487,1.1,1.01,1.03,0.653,0.323,0.52,0.571,0.551,0.563,0.442
